Results on 2 compounds are retold here after US12441959B2, “Composition containing organic ammonium salt” (MIYOSHI OIL & FAT CO., LTD., priority 2019, dated 2025).

This data set can be described thus: Surface resistance measurement with high resistance meter. Format: physicochemical. The note with it: 0.7 g (in terms of anhydride) applied. Here is the method: Surface resistance measurements were performed on compound 1 that had not undergone emulsification adjustment and on glycerin and the emulsification composition that had already undergone emulsification adjustment. In the comparison of compound 1 that had not undergone emulsification adjustment and glycerin, 0.7 g (content in terms of anhydride) of each of the compound 1 and glycerin was applied to an artificial leather made of polyurethane, followed by using a high resistance meter (Stack TR-2 by Tokyo Electronics Co., Ltd.) to measure a surface resistance value. Further, in the comparison by the emulsified composition, 0.05 g of the emulsification compositions shown in Table 11 were each applied to an artificial leather made of polyurethane to measure a surface resistance value using a high resistance meter.
Further, 0.7 g (content in terms of anhydride) of sodium lactate was applied to an artificial leather made of polyurethane before drying the same to volatilize water. As the result, the coating surface was turned into a solid state whose surface resistance value, measured in a similar manner as above, turned out to be 2×10^8Ω; confirmed were a non-volatility of the compound 1 (lower than 1×10^8Ω) and an effect of liquidity at 25° C. (capability of evenly coating a coating object).

As to `OCC(O)CO` [glycerin], the surface resistance value (not emulsified, liquid state at measurement) is recorded as 5×10^8 Ω.

As to `CC(O)C(=O)[O-].[Na+]` (centres unmarked) [sodium lactate], the surface resistance value (dried to volatilize water, solid state) is 2×10^8 Ω.
